{"source": "patent US7470550B2", "about": "“Method of evaluating cell activity” (Toyo Advanced Technologies Co., Ltd., priority 2001, dated 2008)", "molecules": {"B1": {"name": "pleiotrophin: agent which does not bind to CTLL-2 cells (protein, UniProt P21246 33-168, looked up)", "Pleiotrophin": "GKKEKPEKKVKKSDCGEWQWSVCVPTSGDCGLGTREGTRTGAECKQTMKTQRCKIPCNWKKQFGAECKYQFQAWGECDLNTALKTRTGSLKRALHNAECQKTVTISKPCGKLTKPKPQAESKKKKKEGKKQEKMLD"}}, "format_in_all_cases": "cell-based", "key": {"[1]": {"test_system": "CTLL-2 cells", "assay": "SPR measurement of reaction of CTLL2 cells (suspended cells) with IL-2", "details": "living CTLL-2 cells immobilized on sensor chip, 37° C., PBS perfusion 15 μl/min; IL-2 62.5 ng/ml, 60 μl", "source_text": "In the method of the invention, cells are immobilized on a analyzer in the same manner as in the usual SPR measurement for vial cells, to which a stimulus as mentioned above is given to determine the signal as a change of permittivity in a conventional procedure.\n(§1) The method of the invention will be explained in more detail by the following examples, which are not intended to limit the scope of the invention. In the following examples, SPR-CELLIA (Japan Laser Electronic Co.) was used as an SPR analyzer. The sensor chip for amine coupling was prepared as follows.\n(§2) In 10 μM solution of 4,4-dithiodibutyric acid in ethanol was immersed a sensor chip and stirred for 30 minutes. Thereafter, the chip was washed with dry ethanol and dried. Water-soluble carbodiimide (25 mg) was dissolved in 1 ml of MilliQ water, and 15mg of N-hydroxysuccinimide in 9 ml of 1,4-dioxane, respectively. Both solutions were mixed immediately before the dried sensor chip was immersed therein and the mixture stirred for 10 minutes. Then, there was added 10 ml of MilliQ water, and the mixture was stirred for 5 minutes. The chip was washed with MilliQ water and preserved in MilliQ water.\nThe suspension (30 μl)of CTLL-2 cells (2×10^5 cells/ml) in PBS were directly placed onto both of sensor chip-measuring portion and control portion, and the chip was blocked with 50 μl of 1% BSA. The sensor chip was equipped in a flow-cell unit of the SPR analyzer, of which the temperature was set at 37° C. and was perfused with PBS at a flow rate of 15 μl/min."}, "[2]": {"test_system": "Mast cells", "assay": "SPR measurement of reaction of mast cells on an antigen", "description": "as §1, §2\nMast cells (2×10^5 cells/ml, 70 μl) were immobilized on a sensor chip in the same manner as in Example 1. IgE was added to a measuring portion, and incubated in a CO2 incubator at 37° C. overnight. The chip was set on an SPR analyzer, and a running buffer (PIPES buffer, pH 7.2) was perfused at a flow rate of 15 μl/min at a fixed temperature of 37° C. Then, 60 μl of 100 ng/ml DNP-HSA (dinitrophenyl-human serum albumin) or 10 μg/ml DNP-lysine was injected, while a running buffer was perfused continuously, and the change of signal was measured. The composition of PIPES (piperaine-N,N′-bis[2-ethane-sulfonic acid]; 1,4-piperzine-diethanesulfonic acid) buffer is as shown in Table 1."}, "[3]": {"test_system": "Papilla cells", "assay": "SPR measurement of reaction of papilla cells (mesenchyme cells) with bFGF, with or without phosphorylation inhibitor", "details": "for SPR signal from 10 minutes after the injection: 37° C., 1 μg/ml bFGF alone, or bFGF + 50 μM SU4984", "description": "as §1, §2\nPapilla cells were removed from a petri dish with 0.02% EDTA and suspended in a DMEM10 culture medium. The cells (2×10^5 cells/ml, 400 μl) were immobilized on a sensor chip in the same manner as in Example 1.\nPBS was perfused at a flow rate of 15 μl/min at a fixed temperature of 37° C.; 1 μg/ml of bFGF alone was injected into a control portion, and 60 μl of μg/ml bFGF+50 μM phosphorylation inhibitor (SU4984) into a measuring portion; after a lapse of 42 seconds the circuit was closed and the change of signals was measured."}, "[4]": {"details": "10 μg/ml DNP-lysine, PIPES buffer pH 7.2, 37° C."}, "[5]": {"details": "60 μl of 100 ng/ml DNP-HSA, PIPES buffer pH 7.2, 37° C."}}, "data": [{"molecule": "aFGF: agent which does not bind to CTLL-2 cells", "values": [{"measurement": "SPR signal (difference between measuring portion and control portion)", "setting": "[1]", "result": "no signal was observed"}]}, {"molecule": "N[C@@H](CCCCNc1ccc([N+](=O)[O-])cc1[N+](=O)[O-])C(=O)O", "note": "[DNP-lysine]", "values": [{"measurement": "primary SPR signal in mast cells", "setting": "[2]; [4]", "result": "primary signal generated by the binding of DNP-lysine was observed"}, {"measurement": "secondary SPR signal in mast cells", "setting": "[2]; [4]", "result": "no secondary signal observed"}]}, {"molecule": "O=CN1CCN(c2ccc(/C=C3\\C(=O)Nc4ccccc43)cc2)CC1", "note": "[SU4984]", "values": [{"measurement": "SPR signal from 10 minutes after the injection", "setting": "[3]", "result": "became plateau"}, {"measurement": "signal transduction caused by the binding of bFGF", "setting": "[3]; bFGF + 50 μM SU4984", "result": "suppressed"}]}, {"molecule": "dinitrophenyl-human serum albumin [DNP-HSA]", "values": [{"measurement": "primary SPR signal in mast cells (FIG. 3)", "setting": "[2]; 100 ng/ml DNP-HSA, IgE sensitized versus unsensitized cells", "result": "no primary signal was recorded"}, {"measurement": "SPR signal in IgE sensitized mast cells", "setting": "[2]; [5]", "result": "a strong signal was observed"}, {"measurement": "SPR signal in IgE unsensitized mast cells", "setting": "[2]; [5]", "result": "no characteristic change"}]}, {"molecule": "bFGF: growth factor injected onto papilla cells; does not bind to CTLL-2 cells", "values": [{"measurement": "SPR signal (difference between measuring portion and control portion)", "setting": "[1]", "result": "no signal was observed"}, {"measurement": "SPR signal from 10 minutes after the injection", "setting": "[3]", "result": "ascended continuously"}]}, {"molecule": "B1", "values": [{"measurement": "SPR signal (difference between measuring portion and control portion)", "setting": "[1]", "result": "no signal was observed"}]}]}
